This note sets out measurements from US20240246935A1 (Plexium, Inc., priority 2021, published 2024).

One assay concerns IKZF1 (Ikaros). Nature of the assay: IKZF1 reporter degradation assay (HEK 293T IKZF1-mNeonGreen reporter cell line). It is filed as cell-based, human. Conditions: HEK 293T IKZF1 reporter cells, 24 hour incubation. The text has this:
(§1) Polycistronic plasmids were constructed for the mammalian expression of fluorescent reporter fusions of human transcription factors IKZF1 (Ikaros), IKZF2 (Helios), and IKZF3 (Aiolos). The respective protein sequences had their C-terminal end joined to a GGGGS linker repeated three times followed by mNeonGreen, P2A sequence, and mScarlet. The DNA sequences of the open reading frames are as follows:
(§2) IKZF1, IKZF2, and IKZF3 constructs were cloned into the UCOE Hygromycin expression vectors (Millipore Sigma). Reporter constructs were transfected using cationic lipid reagents into adherent HEK 293T cells and stable integrants were selected by treatment with 200 μg/mL hygromycin B. Clonal populations were obtained from the population of stable integrants either by limiting dilution or fluorescence activated cell sorting.
(§3) The clonal stable cell lines were maintained under constant 200 μg/mL hygromycin B selection while being passaged for use in the degradation assays. […] The fluorescence intensity of the IKZF1/2/3-mNeonGreen (FITC channel) and mScarlet (PE channel) reporters were routinely analyzed by flow cytometry to confirm consistent expression levels between experiments.
(§4) The IKZF1/IKZF2/IKZF3 degradation assays were carried out by harvesting the HEK 293T reporter cell lines and resuspending the cells in media formulated for reduced background fluorescence (FluoroBrite; Thermo Fisher). The respective cell lines were seeded at a density of 4000 cells/well into black-walled 384-well optical grade assay tissue culture plates. The cells were incubated overnight at 37° C. to allow for attachment to the assay plate. Dilutions of the compounds were prepared in DMSO from 10 mM compound stocks. The assay plates were treated with appropriate concentrations of the compounds by dispensing the DMSO dilutions in quadruplicate wells with an upper limit of 0.5% final DMSO.
(§5) After 24 hour incubation with the compounds, the assay plates were imaged on an ImageXpress Pico microscopy system (cells maintained at 37° C. during imaging) to obtain the fluorescent readouts. The assay plates were imaged in the FITC and Tetramethylrhodamine (TRITC) channels to obtain the mNeonGreen fluorescence intensity (reporter degradation data) and mScarlet fluorescence intensity (for cell segmentation). 293T-IKZF1 and 293T-IKZF3 reporter cell lines were imaged with exposures of 500 milliseconds (ms) for both FITC and TRITC channels, while the 293T-IKZF2 reporter cell line was imaged with exposures of 1000 ms for FITC and 1250 ms for TRITC. The resulting data was analyzed with Cell Reporter Xpress software using the 2-channel cell scoring analysis with a “percent positive” readout. The TRITC channel was selected for the “nuclei” segmentation with a threshold of 20 while the FITC channel was selected for the “Marker 1” segmentation and a threshold of 100 for the IKZF1 and IKZF3 reporter lines. […] The minimum segmentation width was set to 6 micrometers and the maximum segmentation width was set to 15 micrometers for all cell lines. The DCs calculations were determined by regression to best fit four-parameter logistic curves using GraphPad Prism.

The test system of another assay is IKZF3 (Aiolos). Nature of the assay: IKZF3 reporter degradation assay (HEK 293T IKZF3-mNeonGreen reporter cell line). It is filed as cell-based, human. The note with it: HEK 293T IKZF3 reporter cells, 24 hour incubation.
Description: as §1, §2, §3, §4, §5

Another assay concerns IKZF2 (Helios). Nature of the assay: IKZF2 reporter degradation assay (HEK 293T IKZF2-mNeonGreen reporter cell line). Format: cell-based, human. Conditions: 24 hour incubation; for IKZF2 % Degradation @ 1 μM: 1 μM compound. Summed up:
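HEK 293T lines stably expressing each IKZF-GGGGS×3-mNeonGreen-P2A-mScarlet reporter, 4000 cells/well in FluoroBrite medium, treated with compound (≤0.5% DMSO) for 24 h at 37 °C. Imaging measured percent mNeonGreen-positive cells, with mScarlet used for segmentation; DC50 from four-parameter logistic fit.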

A further assay deals with GSPT1 (Homo sapiens (Human), UniProt P15170+Q96SW2). Nature of the assay: GSPT1 reporter degradation assay (HEK293 hGSPT1 HiBiT-tagged cells). Conditions: 24 hour incubation. It is filed as cell-based. The protocol: HEK293_hGSPT1_HiBiT-tagged cells were generated using CRISPR-Cas12a technology. Briefly, ˜400,000 HEK293 cells were transiently co-transfected with precomplexed ribonuclear proteins (RNPs) consisting of 80 pmol of crRNA (IDT), 62 pmol of Cas12a protein (IDT), 3 μg of ssODN donor (IDT; AltR® modifications), 78 pmol of electroporation enhancer (IDT), and 200 ng of pMaxGFP (Lonza). The transfection was performed via nucleofection (Lonza, 4D-Nucleofector X-unit) using solution P3 and program CM-130 in a (20 μL) cuvette. Five days post-nucleofection, cells were single-cell-sorted for GFP+(transfected) cells by FACs in 96-well plates and clonally selected. Clones were screened and verified for the desired modification via targeted deep sequencing using gene-specific primers with partial Illumina adapter overhangs as previously described. In brief, clonal cell pellets were harvested, lysed, and used to generate gene-specific amplicons with partial Illumina adapters in PCR #1. Amplicons were indexed in PCR #2 and pooled with other targeted amplicons for other loci to create sequence diversity. Additionally, 10% PhiX sequencing control V3 (Illumina) was added to the pooled amplicon library prior to running the sample on a Miseq Sequencer System (Illumina) to generate paired 2×250 bp reads. Samples were demultiplexed using the index sequences, fastq files were generated, and NGS analysis was performed using CRIS.py. Final clones were authenticated using the PowerPlex fusion system (Promega) and tested negative for mycoplasma by the MycoAlert™Plus mycoplasma detection kit (Lonza).
Sequence of GSPT1 (P15170 whole entry): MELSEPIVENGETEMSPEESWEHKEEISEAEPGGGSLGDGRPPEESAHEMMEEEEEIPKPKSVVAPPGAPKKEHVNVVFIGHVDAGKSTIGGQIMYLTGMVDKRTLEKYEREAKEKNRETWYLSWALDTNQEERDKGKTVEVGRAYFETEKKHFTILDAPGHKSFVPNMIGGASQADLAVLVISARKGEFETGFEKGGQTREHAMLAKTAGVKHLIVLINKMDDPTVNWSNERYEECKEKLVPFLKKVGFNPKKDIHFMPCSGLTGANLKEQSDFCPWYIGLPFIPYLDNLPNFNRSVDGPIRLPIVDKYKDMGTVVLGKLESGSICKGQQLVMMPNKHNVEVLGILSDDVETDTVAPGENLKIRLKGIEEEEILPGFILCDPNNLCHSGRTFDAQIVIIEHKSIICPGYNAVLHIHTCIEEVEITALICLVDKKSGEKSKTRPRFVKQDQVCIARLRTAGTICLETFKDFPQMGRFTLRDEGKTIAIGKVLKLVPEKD
Sequence of GSPT1 (Q96SW2 whole entry): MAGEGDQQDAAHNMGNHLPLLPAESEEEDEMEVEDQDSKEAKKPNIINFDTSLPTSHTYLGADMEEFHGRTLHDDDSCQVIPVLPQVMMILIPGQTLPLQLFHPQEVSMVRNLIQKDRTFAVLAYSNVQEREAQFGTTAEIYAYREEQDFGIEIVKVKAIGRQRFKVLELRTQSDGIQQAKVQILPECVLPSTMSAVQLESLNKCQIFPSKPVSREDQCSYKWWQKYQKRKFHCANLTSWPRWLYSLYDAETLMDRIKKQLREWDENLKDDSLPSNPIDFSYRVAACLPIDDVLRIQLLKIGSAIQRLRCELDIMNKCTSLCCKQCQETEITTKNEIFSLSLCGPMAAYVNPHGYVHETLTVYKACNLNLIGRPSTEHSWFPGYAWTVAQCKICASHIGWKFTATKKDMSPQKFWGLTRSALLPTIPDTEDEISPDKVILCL
Sequence of GSPT1 (Q16531 whole entry partner): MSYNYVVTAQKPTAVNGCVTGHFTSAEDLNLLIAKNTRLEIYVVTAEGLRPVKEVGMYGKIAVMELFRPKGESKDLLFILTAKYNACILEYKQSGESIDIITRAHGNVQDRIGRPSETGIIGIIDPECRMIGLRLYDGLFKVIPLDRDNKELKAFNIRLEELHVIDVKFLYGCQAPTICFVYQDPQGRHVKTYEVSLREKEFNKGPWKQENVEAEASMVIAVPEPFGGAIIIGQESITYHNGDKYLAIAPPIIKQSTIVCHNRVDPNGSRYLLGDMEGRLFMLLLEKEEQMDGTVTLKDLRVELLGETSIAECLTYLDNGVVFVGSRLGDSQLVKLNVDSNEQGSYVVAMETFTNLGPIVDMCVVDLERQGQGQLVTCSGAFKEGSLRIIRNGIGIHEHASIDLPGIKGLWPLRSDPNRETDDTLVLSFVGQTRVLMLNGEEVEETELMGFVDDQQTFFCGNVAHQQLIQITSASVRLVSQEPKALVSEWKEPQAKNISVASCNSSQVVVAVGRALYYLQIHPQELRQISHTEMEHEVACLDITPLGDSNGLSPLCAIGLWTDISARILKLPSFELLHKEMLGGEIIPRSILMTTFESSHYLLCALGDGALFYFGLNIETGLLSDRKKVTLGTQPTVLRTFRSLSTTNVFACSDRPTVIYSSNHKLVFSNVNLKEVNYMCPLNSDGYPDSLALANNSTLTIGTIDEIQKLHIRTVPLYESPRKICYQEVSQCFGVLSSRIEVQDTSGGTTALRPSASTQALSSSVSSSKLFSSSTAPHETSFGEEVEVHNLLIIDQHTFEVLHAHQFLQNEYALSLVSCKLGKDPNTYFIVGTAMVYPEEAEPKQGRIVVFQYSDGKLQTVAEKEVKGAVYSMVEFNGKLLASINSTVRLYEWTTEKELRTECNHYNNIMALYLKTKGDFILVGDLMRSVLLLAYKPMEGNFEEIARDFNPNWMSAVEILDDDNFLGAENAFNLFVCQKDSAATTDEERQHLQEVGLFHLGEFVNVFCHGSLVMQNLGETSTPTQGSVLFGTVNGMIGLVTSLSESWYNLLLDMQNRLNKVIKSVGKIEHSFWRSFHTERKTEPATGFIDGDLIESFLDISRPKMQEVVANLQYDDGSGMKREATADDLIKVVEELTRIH
Editing construct sequences and screening primers are outlined below (sequence from 5′ to 3′). hGSPT1Cas12acrRNA, CAGE635.GSPT1.g1: […] (SEQ ID NO: 4); CAGE635.g1.anti.ssODN: ttcctcacagtattgtgcagggtcatcaagaaaatgctta[…] CAGCCGCTCACgtcCttctctggaaccagtttcagaacttttccaattgcaatggtcttacctagaaatgaaattttaa (HiBiT tag and silent blocking modifications to prevent Cas12a recutting after integration are in upper case) (SEQ ID NO: 5); CAGE635.hGSPT1.DS.F: […] (SEQ ID NO: 6); CAGE635.hGSPT1.DS.R: GTGAA GTAGGCTTCTGCAGTC (SEQ ID NO: 7).
The GSPT1 degradation assay was carried out by harvesting the HEK 293T reporter cell lines and resuspending the cells in media formulated for reduced background fluorescence (FluoroBrite; Thermo Fisher). The respective cell lines were seeded at a density of 8,000 cells/well into white-opaque 384-well optical grade assay tissue culture plates (Greiner 781080-20). The cells were incubated overnight at 37° C. to allow for attachment to the assay plate. Dilutions of the compounds were prepared in DMSO from 10 mM compound stocks. Test compounds were added in a 10-point dilution series (typically 10 μM to […]) using a TECAN D300e Digital Dispenser with an upper limit of 0.5% final DMSO. Plates were centrifuged at 320×g for 2 minutes at room temperature, and subsequently incubated at 37° C.
After 24 hour incubation with the compounds, the plates were allowed to cool to room temperature for 10 minutes. 30 μL of HiBiT lytic buffer+1:50 HiBiT substrate Solution were added to each well. Plates were centrifuged at 320×g for 2 minutes at room temperature and then incubated with shaking at room temperature for 10 minutes covered with foil. Plates were read on a CLARIOstar microplate reader (BMG LabTech), measuring at 450 nm (donor emission) and 610 nm or 630 nm (acceptor emission). The DC50 values were determined by regression to best fit four-parameter logistic curves using GraphPad Prism.
(In general: HiBiT is a short tag that completes a luciferase, so light tracks the accessible tagged protein.)

Assay [1] deals with human E3 ligase component cereblon (CRBN) (Homo sapiens (Human), UniProt Q96SW2). Nature of the assay: Cereblon (CRBN) target engagement, NanoBRET TE Intracellular E3 Ligase Assay in transfected HEK-293T cells. The note with it: read-out: CRBN Binding EC50. Summed up:
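Live HEK-293T cells co-transfected overnight with NanoLuc-CRBN (CRBN at NanoLuc C-terminus) and DDB1 vectors (10:990 ng) were given CRBN tracer and an 11-point compound series for 2 h at 37° C. BRET read at 450/610 nm with extracellular NanoLuc inhibitor present; IC50 from four-parameter logistic fit.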
For orientation: In BRET a luciferase serves as donor, and the signal depends on an acceptor being close.

Setting [2] is: HEK 293T IKZF2-mNeonGreen reporter.

Each structure is given as a SMILES string. pEC50: −log10 of the molar value.

Sequence of human E3 ligase component cereblon (CRBN) (Q96SW2 whole entry): as the sequence (Q96SW2 whole entry) above
Sequence of human E3 ligase component cereblon (CRBN) (Q16531 whole entry partner): as the sequence (Q16531 whole entry partner) above

By DC50 is commonly meant the concentration giving 50% degradation. Regarding `O=C1CCC(N2Cc3cc(O[C@H]4CCCC[C@@H]4N4CC(c5ccccc5F)C4)ccc3C2=O)C(=O)N1` (stereo in doubt) [Compound 27], the DC50 was above 30 µM in the assay on IKZF1 (Ikaros), above 30 µM with IKZF3 (Aiolos) and 0.005 µM in the assay with IKZF2 (Helios) (HEK 293T IKZF2 reporter cells). In addition, the “IKZF2 % Degradation @ 1 μM” value in the assay with IKZF2 (Helios) (HEK 293T IKZF2 reporter cells) came out at 82.1%.
`O=C1CCC(N2Cc3cc(O[C@@H]4CCCC[C@H]4N4CC(c5ccccc5)C4)ccc3C2=O)C(=O)N1` (stereo partly drawn) [Compound 11, 3-(1-oxo-5-(((1R,2R)-2-(3-phenylazetidin-1-yl)cyclohexyl)oxy)isoindolin-2-yl)piperidine-2,6-dione]: the DC50 with IKZF1 (Ikaros), with IKZF3 (Aiolos) and in the assay on IKZF2 (Helios) (HEK 293T IKZF2 reporter cells) was above 30 µM throughout.
Consider `O=C1CC[C@H](N2Cc3cc(O[C@H]4CCCC[C@@H]4N4CC(c5ccccc5)C4)ccc3C2=O)C(=O)N1` [Compound 10, (S)-3-(1-oxo-5-(((1S,2S)-2-(3-phenylazetidin-1-yl)cyclohexyl)oxy)isoindolin-2-yl)piperidine-2,6-dione], for which the DC50 with IKZF1 (Ikaros) was above 30 µM; at GSPT1, above 30 µM; with IKZF3 (Aiolos), above 30 µM; in the assay with IKZF2 (Helios) (HEK 293T IKZF2 reporter cells), 0.006 µM. In addition, the “IKZF2 % Degradation @ 1 μM” value in the assay with IKZF2 (Helios) (HEK 293T IKZF2 reporter cells) amounted to 78.7%.
Turning to `O=C1CCC(N2Cc3cc(O[C@H]4CCCC[C@@H]4N4CC(c5ccccc5Cl)C4)ccc3C2=O)C(=O)N1` (stereo partly drawn) [Compound 15, 3-(5-(((1S,2S)-2-(3-(2-chlorophenyl)azetidin-1-yl)cyclohexyl)oxy)-1-oxoisoindolin-2-yl)piperidine-2,6-dione], the DC50 was above 30 µM in the assay on IKZF1 (Ikaros), above 30 µM with IKZF3 (Aiolos) and 0.004 µM with IKZF2 (Helios) (HEK 293T IKZF2 reporter cells). For the same compound, in the assay on IKZF2 (Helios) (HEK 293T IKZF2 reporter cells), the “IKZF2 % Degradation @ 1 μM” value was 78.9%.
For `O=C1CCC(N2Cc3cc(O[C@@H]4CCCC[C@@H]4N4CC(c5ccccc5)C4)ccc3C2=O)C(=O)N1` (stereo partly drawn) [Compound 13, 3-(1-oxo-5-(((1R,2S)-2-(3-phenylazetidin-1-yl)cyclohexyl)oxy)isoindolin-2-yl)piperidine-2,6-dione], the DC50 in the assay on IKZF1 (Ikaros), in the assay on IKZF3 (Aiolos) and in the assay on IKZF2 (Helios) (HEK 293T IKZF2 reporter cells) was above 30 µM each time.
With `O=C1CCC(N2Cc3cc(O[C@H]4CCCC[C@@H]4N4CC(c5ccc(-n6cccn6)cc5)C4)ccc3C2=O)C(=O)N1` (stereo partly drawn) [Compound 31, 3-(5-(((1S,2S)-2-(3-(4-(1H-pyrazol-1-yl)phenyl)azetidin-1-yl)cyclohexyl)oxy)-1-oxoisoindolin-2-yl)piperidine-2,6-dione], the results for the half-maximal degradation concentration (DC50) in the assay with IKZF1 (Ikaros), with IKZF3 (Aiolos) and in the assay on IKZF2 (Helios) (HEK 293T IKZF2 reporter cells) were above 30 µM, above 30 µM and 0.0005 µM, respectively. The “IKZF2 % Degradation @ 1 μM” value in the assay on IKZF2 (Helios) (HEK 293T IKZF2 reporter cells) is 83.3%.
Take `O=C1CC[C@H](N2Cc3cc(O[C@@H]4CCCC[C@H]4N4CC(c5ccccc5)C4)ccc3C2=O)C(=O)N1` [Compound 14, (S)-3-(1-oxo-5-(((1R,2R)-2-(3-phenylazetidin-1-yl)cyclohexyl)oxy)isoindolin-2-yl)piperidine-2,6-dione]: the DC50 is above 30 µM with IKZF1 (Ikaros), above 30 µM with IKZF3 (Aiolos) and 0.292 µM in the assay on IKZF2 (Helios) (HEK 293T IKZF2 reporter cells). The “IKZF2 % Degradation @ 1 μM” value in the assay with IKZF2 (Helios) (HEK 293T IKZF2 reporter cells) is 33.5%.
`O=C1CCC(N2Cc3cc(O[C@H]4CCCC[C@@H]4N4CC(c5ccccc5)C4)ccc3C2=O)C(=O)N1` (stereo partly drawn) [Compound 127, 3-(1-oxo-5-(((1S,2S)-2-(3-phenylazetidin-1-yl)cyclohexyl)oxy)isoindolin-2-yl)piperidine-2,6-dione] registered a DC50 on GSPT1 above 30 µM. Besides, the “IKZF2 % Degradation @ 1 μM” value in the assay with IKZF2 (Helios) (setting [2]) is 77.9%.
The term pEC50 denotes the EC50 on a negative log10 scale, so that one unit is a factor of ten. On to `N#Cc1ccc(C2CN(C3CCCC3Oc3ccc4c(c3)CN(C3CCC(=O)NC3=O)C4=O)C2)cc1F` (stereo not shown) [Compound 110, 4-(1-(2-((2-(2,6-dioxopiperidin-3-yl)-1-oxoisoindolin-5-yl)oxy)cyclopentyl)azetidin-3-yl)-2-fluorobenzonitrile], for which the “IKZF2 % Degradation @ 1 μM” value with IKZF2 (Helios) (setting [2]) is recorded as 48.8%. In addition, the pEC50 in assay [1] is 7.72.
For the compound `COc1ccccc1C1CN([C@H]2CCCC[C@@H]2Oc2ccc3c(c2)CN(C2CCC(=O)NC2=O)C3=O)C1` (stereo partly drawn) [Compound 19, 3-(5-(((1S,2S)-2-(3-(2-methoxyphenyl)azetidin-1-yl)cyclohexyl)oxy)-1-oxoisoindolin-2-yl)piperidine-2,6-dione], the DC50 in the assay with IKZF1 (Ikaros) is above 30 µM; in the assay with IKZF3 (Aiolos), above 30 µM; in the assay with IKZF2 (Helios) (HEK 293T IKZF2 reporter cells), 0.004 µM. The “IKZF2 % Degradation @ 1 μM” value in the assay with IKZF2 (Helios) (HEK 293T IKZF2 reporter cells) is 84.5%.
Regarding `N#Cc1ccc(C2CN([C@H]3CCCC[C@@H]3Oc3ccc4c(c3)CN(C3CCC(=O)NC3=O)C4=O)C2)c(Cl)c1` (mixture of isomers) [Compound 74, Rac-3-chloro-4-(1-((trans)-2-((2-(2,6-dioxopiperidin-3-yl)-1-oxoisoindolin-5-yl)oxy)cyclohexyl)azetidin-3-yl)benzonitrile], in the assay on IKZF2 (Helios) (setting [2]), the “IKZF2 % Degradation @ 1 μM” value turned out to be 63%. Also, the pEC50 in assay [1] was 7.70.
